Results taken from ChEMBL document CHEMBL1201862, “PubChem BioAssay data set” (2004).
The source made the active and inactive calls.

Key:
[1] = microbe, parasite or virus in culture; format: functional; conditions: Mycobacterium tuberculosis
[2] = viability loss in THP-1 monocytes – THP-1 cells, cytotoxicity control for Vif-APOBEC3G degradation inhibitor project, dose response (AID 1117359); format: functional; conditions: THP-1
[3] = P. falciparum Dd2 growth inhibitors, dose response, SYBR Green, cherry-picked samples (AID 1159567); format: functional, cell-based
[4] = target: Paired box protein Pax-8 (Homo sapiens, UniProt Q06710); assay: PAX8 transcriptional activity inhibition in RMG-I – RMG-I cells, luciferase, cherry-pick, dose response (AID 687027); format: functional, cell-based;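 also: luciferase reporter driven by Pax8 target thyroperoxidase promoter measured by SteadyGlo luminescence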
[5] = OVCAR8 cell viability loss – plate reader, dry powder samples, PAX8 project, dose response (AID 743197); format: functional, cell-based; conditions: OVCAR-8
[6] = OVCAR-3 cell viability loss – plate reader, dry powder samples, PAX8 inhibitor project, dose response (AID 743044); format: functional, cell-based
[7] = HEK-293T cell viability reduction – luminescence, B-cell screen hits, cytotoxicity control for BCR NF-kB inhibitor project, dose response (AID 489021); format: functional, cell-based;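 also: HEK-293T cells carrying an NF-kB luciferase reporter; cells exposed to compound for about 14 hours before viability readout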
[8] = NIH3T3 cell viability loss – ATP luminescence, mouse fibroblasts, counter-screen, dose response (AID 2010); format: functional, cell-based;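 also: cells exposed to compound for about 90 hours before reading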
[9] = Luminescence Cell-Based Dose Retest to Confirm Inhibitors of Cancer Stem Cells. [Related pubchem assays (depositor defined):AID2717, AID2721]; format: functional; conditions: Homo sapiens
[10] = Trypanosoma cruzi growth suppression in host cells – NIH3T3 host cells, beta-gal luminescence, confirmation (AID 2044); format: functional, cell-based;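 also: intracellular parasites grown in NIH/3T3 mouse fibroblasts as host cells; luminescent beta-galactosidase reporter signal from transgenic T. cruzi replicating inside host cells; inhibitors lower the luminescence signal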
[11] = target: T1, Heat shock factor protein 1 (Mus musculus, UniProt P38532); assay: decrease of HSF1-responsive luciferase luminescence – cell-based, NIH3T3, dose retest, confirmation (AID 2382); format: functional;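 also: NIH3T3 fibroblasts with HSF1-driven luciferase reporter stressed by proteasome inhibitor MG132; luminescence from HSF1-driven luciferase expression after 8 hours of MG132 stress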
T1 sequence (P38532 whole entry): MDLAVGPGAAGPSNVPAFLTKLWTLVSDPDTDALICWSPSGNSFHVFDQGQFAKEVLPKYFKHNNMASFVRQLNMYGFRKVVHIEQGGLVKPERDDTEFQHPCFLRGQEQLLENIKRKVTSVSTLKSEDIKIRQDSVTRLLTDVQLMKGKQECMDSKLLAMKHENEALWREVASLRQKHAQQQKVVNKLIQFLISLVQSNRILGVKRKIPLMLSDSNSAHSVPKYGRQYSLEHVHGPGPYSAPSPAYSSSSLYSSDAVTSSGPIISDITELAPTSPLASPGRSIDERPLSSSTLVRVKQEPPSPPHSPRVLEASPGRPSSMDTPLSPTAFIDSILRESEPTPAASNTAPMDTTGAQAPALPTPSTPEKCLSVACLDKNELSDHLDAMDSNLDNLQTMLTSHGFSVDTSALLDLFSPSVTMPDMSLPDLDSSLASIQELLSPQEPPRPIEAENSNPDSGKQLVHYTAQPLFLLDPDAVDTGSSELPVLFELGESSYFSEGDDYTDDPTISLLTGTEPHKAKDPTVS

[12] = tested on: HEK293; assay: EBV LMP1 TES2 canonical NF-kB signalling blockers – cell-based, HEK293, luciferase, cherry-pick, dose response (AID 588343); format: functional; conditions: Homo sapiens
[13] = target: T2, Acyl-homoserine lactone acylase PvdQ (Pseudomonas aeruginosa (strain LESB58), UniProt Q9I194); assay: PvdQ acylase enzyme activity blockers – biochemical, fluorescence, plate reader and imaging, cherry-picks, dose response (AID 493231)
T2 sequence (Q9I194 whole entry): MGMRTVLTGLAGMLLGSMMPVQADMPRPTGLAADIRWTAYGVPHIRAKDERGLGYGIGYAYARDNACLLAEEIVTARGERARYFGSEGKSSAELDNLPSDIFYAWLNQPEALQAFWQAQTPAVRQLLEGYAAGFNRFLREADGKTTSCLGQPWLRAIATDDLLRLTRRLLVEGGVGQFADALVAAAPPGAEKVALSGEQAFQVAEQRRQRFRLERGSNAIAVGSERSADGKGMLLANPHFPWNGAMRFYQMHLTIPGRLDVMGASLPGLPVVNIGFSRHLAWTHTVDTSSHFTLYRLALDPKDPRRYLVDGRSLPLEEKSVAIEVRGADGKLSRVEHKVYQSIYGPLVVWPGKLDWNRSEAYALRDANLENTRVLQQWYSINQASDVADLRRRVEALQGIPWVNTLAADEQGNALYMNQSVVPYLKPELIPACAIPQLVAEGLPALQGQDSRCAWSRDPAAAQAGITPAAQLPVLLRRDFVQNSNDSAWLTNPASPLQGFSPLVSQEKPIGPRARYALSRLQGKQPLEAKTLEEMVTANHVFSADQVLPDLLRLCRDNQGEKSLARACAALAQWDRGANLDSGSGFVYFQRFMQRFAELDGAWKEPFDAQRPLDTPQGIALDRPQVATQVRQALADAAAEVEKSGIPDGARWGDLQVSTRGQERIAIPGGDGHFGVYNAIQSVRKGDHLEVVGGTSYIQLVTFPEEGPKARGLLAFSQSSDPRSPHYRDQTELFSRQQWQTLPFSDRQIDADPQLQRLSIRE

[14] = THP-1 cell cytotoxicity, dose response, cytotoxicity control for non-replicating M. tuberculosis project (AID 489025); format: functional
[15] = cells; format: functional
[16] = Vero E6 cell cytotoxicity, dose response, cytotoxicity control for non-replicating M. tuberculosis project, secondary assay (AID 492998); format: functional, VeroE6; conditions: Vero C1008
[17] = HIV-1 Vif–A3G interaction blockers – biochemical, TR-FRET, GST-Vif 1-94, biotin-A3G peptide, dose response retest, primary screen (AID 1117319); format: functional;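 also: TR-FRET signal of purified GST-Vif binding a biotinylated A3G peptide; inhibitors lower the FRET signal by blocking Vif and A3G binding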
[18] = target: Large T antigen (Simian virus 40, UniProt P03070); format: functional, Betapolyomavirus macacae;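 also: Confirmatory-stage PubChem screen for compounds that inhibit SV40 T antigen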
[19] = target: T3, Short transient receptor potential channel 4 (Mus musculus, UniProt Q9QUQ5); assay: block of DAMGO-driven TRPC4 calcium entry – cell-based, HEK293 TRPC4/mu-opioid, Fluo-4 calcium, dose response (AID 434942); format: functional;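 also: potency of inhibitors blocking the TRPC4 calcium response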
T3 sequence (Q9QUQ5 whole entry): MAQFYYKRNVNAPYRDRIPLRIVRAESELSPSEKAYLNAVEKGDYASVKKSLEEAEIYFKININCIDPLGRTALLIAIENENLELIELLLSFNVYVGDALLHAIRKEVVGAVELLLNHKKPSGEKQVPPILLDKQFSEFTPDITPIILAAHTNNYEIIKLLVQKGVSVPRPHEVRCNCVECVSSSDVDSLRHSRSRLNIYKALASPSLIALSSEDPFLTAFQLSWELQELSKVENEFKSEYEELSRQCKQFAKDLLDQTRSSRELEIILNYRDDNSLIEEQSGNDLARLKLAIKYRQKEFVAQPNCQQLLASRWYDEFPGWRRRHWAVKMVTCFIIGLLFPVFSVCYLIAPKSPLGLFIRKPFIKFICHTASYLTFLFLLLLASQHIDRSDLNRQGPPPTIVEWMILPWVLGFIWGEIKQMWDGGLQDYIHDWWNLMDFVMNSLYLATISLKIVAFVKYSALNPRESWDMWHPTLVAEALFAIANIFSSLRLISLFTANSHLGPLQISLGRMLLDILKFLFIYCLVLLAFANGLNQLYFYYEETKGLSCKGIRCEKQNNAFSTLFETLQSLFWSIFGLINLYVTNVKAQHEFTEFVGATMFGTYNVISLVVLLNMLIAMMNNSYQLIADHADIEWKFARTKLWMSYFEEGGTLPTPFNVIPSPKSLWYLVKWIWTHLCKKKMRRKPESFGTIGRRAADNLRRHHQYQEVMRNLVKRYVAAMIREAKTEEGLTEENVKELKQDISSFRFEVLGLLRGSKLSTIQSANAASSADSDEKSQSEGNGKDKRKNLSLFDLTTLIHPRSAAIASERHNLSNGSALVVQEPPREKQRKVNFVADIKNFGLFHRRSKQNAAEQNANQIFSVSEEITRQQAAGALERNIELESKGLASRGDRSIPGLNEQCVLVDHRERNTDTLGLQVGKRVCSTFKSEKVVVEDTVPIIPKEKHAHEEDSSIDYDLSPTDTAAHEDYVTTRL

[20] = Luminescence Cell-Based Dose Response HTS to Identify Inhibitors of 5'UTR Stem-Loop Driven Prion Protein mRNA Translation in H4 Neuroglioblastoma Cells. [Related pubchem assays: 1827 (Project Summary), 1813 (Primary HTS)]; format: functional
[21] = alpha-synuclein stem-loop luciferase translation blockers – H4 neuroglioma cells, luminescence, confirmation (AID 1988); format: functional, cell-based
[22] = tested on: BJ; assay: BJ-TERT fibroblast viability loss – cell-based, RAS-independent, luminescence, dose response (AID 1933); format: functional; conditions: Homo sapiens
[23] = tested on: BJ; assay: BJ-TERT-LT-ST fibroblast viability loss – cell-based, RAS-independent, luminescence, dose response (AID 1935); format: functional; conditions: Homo sapiens;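 also: BJ fibroblasts immortalized with TERT plus LT and ST oncogenes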
[24] = DRD fibroblast viability loss – cell-based, non-viral oncogenic, luminescence, dose response (AID 1934); format: functional; conditions: Homo sapiens
[25] = luciferase reporter signal suppression in cells – H4 neuroglioma cells, luminescence, dose response (AID 1990); format: functional, cell-based
[26] = tested on: BJ; assay: cells; format: functional, cell-based; conditions: Homo sapiens

Paired box protein Pax-8, sequence (Q06710 whole entry): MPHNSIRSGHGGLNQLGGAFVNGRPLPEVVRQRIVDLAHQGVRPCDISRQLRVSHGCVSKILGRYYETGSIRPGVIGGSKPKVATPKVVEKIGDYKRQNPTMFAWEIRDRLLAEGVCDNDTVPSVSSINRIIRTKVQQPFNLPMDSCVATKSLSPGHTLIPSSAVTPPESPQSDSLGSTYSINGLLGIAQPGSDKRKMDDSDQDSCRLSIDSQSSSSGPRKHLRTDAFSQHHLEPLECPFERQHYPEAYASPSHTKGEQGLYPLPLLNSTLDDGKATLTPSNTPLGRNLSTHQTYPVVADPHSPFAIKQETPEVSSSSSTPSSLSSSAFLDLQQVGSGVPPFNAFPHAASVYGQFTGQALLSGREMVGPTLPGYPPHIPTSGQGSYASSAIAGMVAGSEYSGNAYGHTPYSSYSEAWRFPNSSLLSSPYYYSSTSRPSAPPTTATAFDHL
Large T antigen, sequence (P03070 whole entry): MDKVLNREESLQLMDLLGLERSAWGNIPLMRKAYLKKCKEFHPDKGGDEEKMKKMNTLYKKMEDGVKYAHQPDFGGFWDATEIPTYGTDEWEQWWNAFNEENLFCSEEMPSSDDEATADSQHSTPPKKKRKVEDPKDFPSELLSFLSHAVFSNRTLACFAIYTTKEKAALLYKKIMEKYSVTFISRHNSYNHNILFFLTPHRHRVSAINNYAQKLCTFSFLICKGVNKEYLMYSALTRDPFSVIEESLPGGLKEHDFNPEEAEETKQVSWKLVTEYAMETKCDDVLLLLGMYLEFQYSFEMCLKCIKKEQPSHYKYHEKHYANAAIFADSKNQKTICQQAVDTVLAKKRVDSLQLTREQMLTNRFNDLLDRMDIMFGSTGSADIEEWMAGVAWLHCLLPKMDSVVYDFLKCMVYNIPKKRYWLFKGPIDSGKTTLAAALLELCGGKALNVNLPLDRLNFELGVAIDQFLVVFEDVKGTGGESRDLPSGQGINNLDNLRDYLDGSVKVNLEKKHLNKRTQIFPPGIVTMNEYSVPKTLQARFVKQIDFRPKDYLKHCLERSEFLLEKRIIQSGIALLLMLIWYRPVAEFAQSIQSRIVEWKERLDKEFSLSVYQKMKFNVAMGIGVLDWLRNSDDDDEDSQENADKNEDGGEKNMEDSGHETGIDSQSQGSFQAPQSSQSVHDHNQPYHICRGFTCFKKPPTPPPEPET

Structure (SMILES): Cc1ccc2nc(-c3ccncc3)cc(-c3ccccc3)c2c1
- CC50 [1]: > 40 µM (active)

Structure (SMILES): O=C(CSc1nnnn1-c1ccc2c(c1)CCC2)Nc1ccc2c(c1)OCCO2
- CC50 [2]: > 40 µM (active)

Structure (SMILES): O=S(=O)(c1ccccc1)N1CC[C@@H]2[C@H](CO)Nc3ccc(C#CC4CCCCC4)cc3[C@@H]21
- AC50 [3]: 6.42 µM (active)

Structure (SMILES): C[C@@H]1CN([C@H](C)CO)C(=O)c2cc(NC(=O)Nc3ccc(F)cc3)ccc2O[C@@H](C)CCCCO[C@@H]1CN(C)Cc1ccc(Cl)c(Cl)c1
- AC50 [4]: 8.1 µM (active)
- AC50 [5]: 38.7 µM (active)
- AC50 [6]: 20 µM (active)

Structure (SMILES): CCCOc1ccc(NC(=O)C(=O)NCCCn2ccnc2)cc1
- IC50 [7]: > 80 µM (inactive)

Structure (SMILES): O=S(=O)(c1ccc(Cl)cc1)N1CCC(n2cnc3cc(C(F)(F)F)ccc32)CC1
- EC50 [8]: > 60 µM (not active)
- AC50 [9]: 0.552 µM (active)
- EC50 [10]: 2.04 µM (active)
- CC50 [1]: > 40 µM (active)

Structure (SMILES): Cc1nn(C(C)(C)C)c(C)c1/C=N/OC(=O)Nc1ccc(Cl)c(Cl)c1
- EC50 [11]: < 0.16 µM (active)
- AC50 [12]: 0.839 µM (active)
- IC50 [7]: > 80 µM (inactive)

Structure (SMILES): O=C(c1cnccn1)N1CC(=O)N2[C@@H](CO)[C@@H](c3ccc(C#CCc4ccccc4)cc3)[C@@H]2C1
- AC50 [3]: 15.7 µM (active)

Structure (SMILES): O=C1OC(c2ccccc2)c2ccccc21 (stereo not given)
- AC50 [13]: 97.9 µM (active)

Structure (SMILES): FC(F)(F)c1nnc2ccc(Cl)nn12
- CC50 [14]: 8.62 µM (active)
- IC50 [15]: 1.82 µM (active)
- CC50 [16]: > 20 µM (active)

Structure (SMILES): O=C1c2ccccc2C(Nc2ccc(F)c(Cl)c2)N1c1ccccn1 (stereo not given)
- IC50 [17]: > 100 µM (active)

Structure (SMILES): CC(=O)C1=C(C)NC(SCC(=O)c2ccc(F)cc2)=C(C#N)C1c1ccco1 (stereo not given)
- CC50 [1]: 39.2 µM (active)

Structure (SMILES): Clc1ccc2scc(CN3CCCCC3)c2c1
- AC50 [13]: 9.4 µM (active)

Structure (SMILES): O=C1COc2ccc(N3C(=O)C=CC3=O)cc2N1
- EC50 [11]: 9.09 µM (active)
- IC50 [18]: > 100 µM (active)
- EC50 [19]: 6.68 µM (active)

Structure (SMILES): OCCNCc1cc(Br)ccc1OCc1ccc(Cl)cc1Cl
- EC50 [19]: 3.35 µM (active)

Structure (SMILES): CCCc1ccc(C2=Nn3c(nnc3C(C)C)SC2)cc1
- CC50 [1]: > 40 µM (active)

Structure (SMILES): COc1ccc(-c2[nH]c(-c3ccc(C)cc3)nc2SCC(=O)NCc2ccco2)cc1OC
- IC50 [17]: > 100 µM (active)

Structure (SMILES): O=C1NC(=O)N(Cc2ccco2)C(=O)/C1=C/NCc1ccc2c(c1)OCO2
- IC50 [17]: > 100 µM (active)

Structure (SMILES): COc1ccc(S(=O)(=O)Nc2cc3c(C(C)=O)c(C)oc3c3ccccc23)cc1
- EC50 [20]: 2.67 µM (active)
- EC50 [21]: 0.294 µM (active)
- EC50 [22]: 1.59 µM (active)
- EC50 [23]: 1.26 µM (active)
- EC50 [24]: 1.91 µM (active)
- IC50 [7]: > 80 µM (inactive)
- EC50 [25]: 2.35 µM (active)
- EC50 [26]: 4.49 µM (active)

Structure (SMILES): C[C@H](CO)N1C[C@H](C)[C@H](CN(C)S(=O)(=O)c2ccccc2)Oc2cc(C#Cc3ccncc3)ccc2S1(=O)=O
- AC50 [3]: 6.63 µM (active)

Structure (SMILES): Cc1nc([N+](=O)[O-])c(Br)n1Cc1ccccc1
- CC50 [14]: 30.1 µM (active)
- IC50 [15]: 9.77 µM (active)
- CC50 [16]: > 20 µM (active)

Structure (SMILES): CO[C@@H]1CN(C)C(=O)c2ccc(NC(=O)Nc3cc(Cl)cc(Cl)c3)cc2OC[C@H](C)NC[C@H]1C
- AC50 [3]: 6.54 µM (active)

Structure (SMILES): Cc1ccc2c(c1C)NC(=O)C2(O)CC(=O)c1ccc2c(c1)OCO2 (stereo not given)
- IC50 [17]: > 100 µM (active)

Structure (SMILES): CN1CCN(c2nc(-c3cccnc3)nc3scc(-c4ccccc4)c23)CC1
- EC50 [19]: 11.9 µM (active)

Structure (SMILES): CC(C)(C)c1ccc(C(=O)N2CCN(CCNC(=O)C(=O)NCc3ccc(Cl)cc3)CC2)cc1
- EC50 [8]: > 30 µM (not active)
- EC50 [10]: 3.43 µM (active)
- CC50 [1]: > 40 µM (active)

Structure (SMILES): COc1ccc(/N=c2\scc(-c3ccc(OC)cc3)n2CCO)cc1
- IC50 [17]: > 100 µM (active)
- CC50 [2]: 28.5 µM (active)

Structure (SMILES): CC(C)Oc1ccc(Nc2ncnc3ccccc23)cc1
- AC50 [13]: 16.3 µM (active)
